Experimental data: patent US20240158439A1, “INHIBITORS OF ANTIGEN PRESENTATION BY MHC CLASS II HLA-DRB1*15:01 MOLECULES WITH ENHANCED METABOLIC STABILITY” (Provid Pharmaceuticals Inc., priority 2021, published 2024)
*1 amine or outer side, *2 acyl side, *3 side chain or, on linkers, in order; H or OH if unused. Where a SMILES comes first, the peptide text is derived from it. [ ]: non-standard residue; d: D form. The star is where a group is joined. X4 = O=C([C@H](Cc1cccc2[nH]ncc12)N[*:1])[*:2]; X1 = O=C([C@H](Cc1ccc2ccccc2n1)N[*:1])[*:2]; Ala(4-thiazolyl) = N[C@@H](Cc1cscn1)C(=O)O; Oic = O=C(O)[C@@H]1C[C@@H]2CCCC[C@@H]2N1; Bta = N[C@@H](Cc1csc2ccccc12)C(=O)O; Igl = N[C@H](C(=O)O)C1Cc2ccccc2C1; hCit = NC(=O)NCCCC[C@H](N)C(=O)O; Tic = O=C(O)[C@@H]1Cc2ccccc2CN1; Chg = N[C@H](C(=O)O)C1CCCCC1; NHPhenethyl = c1ccc(CCN*)cc1; Tle = CC(C)(C)[C@H](N)C(=O)O; Morpholide = C1CN(*)CCO1; Nva = CCC[C@H](N)C(=O)O; βAla = NCCC(=O)O; Sar = CNCC(=O)O

Molecular target: T1, HLA-DRB1*15:01 (Homo sapiens, UniProt P01903+P01911)
T1 construct: endogenous in cells; host or cells: EBV homozygous cell lines (human)
Assay: HLA II binding assay (competitive, biotinylated reference peptide)
Settings: Table 2, DRB1*15:01 binding; unit inferred, nM; read-out: Avg IC50

| Molecule | IC50 [nM] |
| --- | --- |
| CC(=O)N[C@H](C(=O)N[C@H](C(=O)N[C@@H](C)C(=O)N1Cc2ccccc2C[C@H]1C(=O)N[C@@H](Cc1ccccc1)C(N)=O)C1CCCCC1)C(C)C [PV-560] (Ac-V[Chg]A[Tic]F-NH2) | 43 |
| CC(=O)N[C@H](C(=O)N[C@H](C(=O)N[C@@H](CCCNC(=N)N)C(=O)N1[C@H](C(=O)N[C@@H](Cc2ccccc2)C(N)=O)C[C@@H]2CCCC[C@@H]21)C1CCCCC1)C(C)C [PV-589, reference compound] (Ac-V[Chg]R[Oic]F-NH2) | 474 |
| CC(=O)N[C@H](C(=O)N[C@H](C(=O)N[C@@H](CCCCNC(N)=O)C(=O)N1Cc2ccccc2C[C@H]1C(=O)N[C@@H](Cc1ccccc1)C(N)=O)C1CCCCC1)C(C)C [PV-640] (Ac-V[Chg][hCit][Tic]F-NH2) | 7 |
| CCC[C@H](NC(C)=O)C(=O)N[C@H](C(=O)N[C@@H](CCCNC(=N)N)C(=O)N1Cc2ccccc2C[C@H]1C(=O)N[C@@H](Cc1ccccc1)C(N)=O)C1CCCCC1 [PV-591] (Ac-[Nva][Chg]R[Tic]F-NH2) | 4.1 |
| CC(=O)N[C@H](C(=O)N[C@H](C(=O)N[C@@H](CCCNC(=N)N)C(=O)N1Cc2ccccc2C[C@H]1C(=O)N[C@@H](Cc1ccccc1)C(N)=O)C1CCCCC1)C(C)(C)C [PV-590] (Ac-[Tle][Chg]R[Tic]F-NH2) | 1.3 |
| CC(=O)N[C@H](C(=O)N[C@H](C(=O)N[C@@H](CCCNC(=N)N)C(=O)N1Cc2ccccc2C[C@H]1C(=O)N[C@@H](Cc1cccc2[nH]ncc12)C(N)=O)C1CCCCC1)C(C)C [PV-676] (Ac-V[Chg]R[Tic][X4]-NH2) | 3 |
| CNCC(=O)N[C@H](C(=O)N[C@H](C(=O)N[C@@H](CCCNC(=N)N)C(=O)N1Cc2ccccc2C[C@H]1C(=O)N[C@@H](Cc1ccccc1)C(N)=O)C1CCCCC1)C(C)C [PV-636] (H-[Sar]V[Chg]R[Tic]F-NH2) | 3 |
| CC(=O)N[C@H](C(=O)N[C@H](C(=O)N[C@@H](CCCNC(=N)N)C(=O)N1Cc2ccccc2C[C@H]1C(=O)NCCc1ccccc1)C1CCCCC1)C(C)C [PV-708, reference compound] (Ac-V[Chg]R[Tic]-NHPhenethyl) | 464 |
| Ac-VVRFF-NH2 [PV-73, reference compound] | 2370 |
| CC(C)[C@H](NC(=O)CCN)C(=O)N[C@H](C(=O)N[C@@H](CCCNC(=N)N)C(=O)N1Cc2ccccc2C[C@H]1C(=O)N[C@@H](Cc1ccccc1)C(N)=O)C1CCCCC1 [PV-638] (H-[βAla]V[Chg]R[Tic]F-NH2) | 2 |
| CC(=O)N[C@H](C(=O)N[C@@H](CCCNC(=N)N)C(=O)N1Cc2ccccc2C[C@H]1C(=O)N[C@@H](Cc1csc2ccccc12)C(N)=O)C1CCCCC1 [PV-477] (Ac-[Chg]R[Tic][Bta]-NH2) | 82 |
| CC(=O)N[C@H](C(=O)N[C@H](C(=O)N[C@@H](CCCNC(=N)N)C(=O)N1Cc2ccccc2C[C@H]1C(=O)N[C@@H](Cc1ccccc1)C(N)=O)C1Cc2ccccc2C1)C(C)C [PV-594] (Ac-V[Igl]R[Tic]F-NH2) | 14 |
| CC(=O)N[C@H](C(=O)N[C@H](C(=O)N[C@@H](CCCNC(=N)N)C(=O)N1Cc2ccccc2C[C@H]1C(=O)N[C@@H](Cc1ccc2ccccc2n1)C(N)=O)C1CCCCC1)C(C)C [PV-617, reference compound] (Ac-V[Chg]R[Tic][X1]-NH2) | 3450 |
| CC(=O)N[C@H](C(=O)N[C@H](C(=O)N[C@@H](CCCNC(=N)N)C(=O)N1Cc2ccccc2C[C@H]1C(=O)N[C@@H](Cc1c[nH]c2ccccc12)C(N)=O)C1CCCCC1)C(C)C [PV-579] (Ac-V[Chg]R[Tic]W-NH2) | 1.3 |
| CC(C)[C@H](NC(=O)CCN)C(=O)N[C@H](C(=O)N[C@@H](Cc1cscn1)C(=O)N1Cc2ccccc2C[C@H]1C(=O)N[C@@H](Cc1ccccc1)C(N)=O)C1CCCCC1 [PV-833] (H-[βAla]V[Chg][Ala(4-thiazolyl)][Tic]F-NH2) | 17 |

Same assay, conditions: read-out: binding IC50

| Molecule | IC50 [nM] |
| --- | --- |
| CC(=O)N[C@H](C(=O)N[C@H](C(=O)N[C@@H](CCCNC(=N)N)C(=O)N1Cc2ccccc2C[C@H]1C(=O)N[C@@H](Cc1ccccc1)C(=O)N1CCOCC1)C1CCCCC1)C(C)C [PV-630] (Ac-V[Chg]R[Tic]F-Morpholide) | 33 |
